According to ChEMBL document CHEMBL4673351, “3α-Angeloyloxy-ent-kaur-16-en-19-oic Acid Isolated from Wedelia trilobata L. Alleviates Xylene-Induced Mouse Ear Edema and Inhibits NF-κB and MAPK Pathway in LPS-Stimulated Macrophages” (J Nat Prod, 2020):
The source made the active and inactive calls. No cut-off for these calls is given here.

Tests used:
[1] = test system: Mus musculus; assay: Antiinflammatory activity in Kunming mouse assessed as reduction in xylene-induced cell infiltration in ear at 5 mg/kg administered topically pretreated for 30 mins followed by xylene-treatment and measured after 30 mins by H and E staining based microscopic method; format: functional, organism-based; settings: time 60.0 min
[2] = test system: Mus musculus; assay: Antiinflammatory activity in Kunming mouse assessed as reduction in xylene-induced vasodilation in ear at 5 mg/kg administered topically pretreated for 30 mins followed by xylene-treatment and measured after 30 mins by H and E staining based microscopic method; format: functional, organism-based; settings: time 60.0 min
[3] = test system: Mus musculus; assay: Antiinflammatory activity in Kunming mouse assessed as reduction in xylene-induced ear edema at 5 mg/kg administered topically pretreated for 30 mins followed by xylene-treatment and measured after 30 mins relative to control; format: functional; design: scale not given: the % may be the effect or the level left; settings: time 60 min, 1 h
[4] = (§1) Inhibition of NF-kappaB activation in mouse RaW264.7 cells assessed as reduction in LPS-induced NO production after 24 hrs by Griess reagent based assay; format: cell-based; settings: RAW264.7, 24 h
[5] = test system: RAW264.7; assay: Inhibition of LPS-induced iNOS protein expression in mouse RAW264.7 cells up to 30 uM after 24 hrs by Western blot analysis; format: functional, cell-based; settings: dose microM <=30, time 24.0 hrs
[6] = test system: RAW264.7; assay: Inhibition of LPS-induced COX-2 mRNA expression in mouse RAW264.7 cells after 24 hrs by qRT-PCR analysis; format: functional, cell-based
[7] = test system: RAW264.7; assay: Inhibition of LPS-induced iNOS mRNA expression in mouse RAW264.7 cells after 24 hrs by qRT-PCR analysis; format: functional, cell-based
[8] = (§2) Inhibition of NF-kappaB activation in mouse RaW264.7 cells assessed as reduction in LPS-induced PGE2 production after 24 hrs by ELISA; format: cell-based; settings: RAW264.7, 24 h
[9] = test system: RAW264.7; assay: as §2; format: cell-based
[10] = test system: RAW264.7; assay: as §1; format: cell-based
[11] = test system: RAW264.7; assay: Cytotoxicity against mouse RAW264.7 cells assessed as reduction in cell viability up to 60 uM after 24 hrs in presence of LPS by MTT assay; format: cell-based; settings: raw264.7, 24 h
[12] = test system: RAW264.7; assay: Cytotoxicity against mouse RAW264.7 cells assessed as reduction in cell viability up to 80 uM after 24 hrs by MTT assay; format: cell-based; settings: raw264.7, 24 h
[13] = test system: Mus musculus; assay: Antiinflammatory activity in Kunming mouse assessed as reduction in xylene-induced cell infiltration in ear at 50 mg/kg administered topically pretreated for 30 mins followed by xylene-treatment and measured after 30 mins by H and E staining based microscopic method; format: functional, organism-based; settings: time 60.0 min
[14] = test system: Mus musculus; assay: Antiinflammatory activity in Kunming mouse assessed as reduction in xylene-induced vasodilation in ear at 50 mg/kg administered topically pretreated for 30 mins followed by xylene-treatment and measured after 30 mins by H and E staining based microscopic method; format: functional, organism-based; settings: time 60.0 min
[15] = test system: Mus musculus; assay: Antiinflammatory activity in Kunming mouse assessed as reduction in xylene-induced ear edema at 50 mg/kg administered topically pretreated for 30 mins followed by xylene-treatment and measured after 30 mins relative to control; format: functional; design: scale not given: the % may be the effect or the level left; settings: time 60 min, 1 h
[16] = test system: Mus musculus; assay: Antiinflammatory activity in Kunming mouse assessed as reduction in xylene-induced ear edema at 25 mg/kg administered topically pretreated for 30 mins followed by xylene-treatment and measured after 30 mins relative to control; format: functional; design: scale not given: the % may be the effect or the level left; settings: time 60 min, 1 h
[17] = test system: RAW264.7; assay: Inhibition of NF-kappaB p65 nuclear translocation in LPS-induced mouse RaW264.7 cells at 20 uM after 24 hrs by DAPI staining based Immunofluorescence assay
[18] = test system: RAW264.7; assay: Inhibition of NF-kappaB activation in mouse RaW264.7 cells assessed as reduction in LPS-induced TNF-alpha protein expression up to 30 uM after 24 hrs by Western blot analysis; format: cell-based; settings: dose microM <=30, time 24.0 hrs
[19] = test system: RAW264.7; assay: Inhibition of NF-kappaB activation in mouse RaW264.7 cells assessed as reduction in LPS-induced IL-6 protein expression up to 30 uM after 24 hrs by Western blot analysis; format: cell-based; settings: dose microM <=30, time 24.0 hrs
[20] = test system: RAW264.7; assay: Inhibition of NF-kappaB activation in mouse RaW264.7 cells assessed as reduction in LPS-induced TNFalpha mRNA expression after 24 hrs by qRT-PCR analysis; format: cell-based
[21] = test system: RAW264.7; assay: Inhibition of NF-kappaB activation in mouse RaW264.7 cells assessed as reduction in LPS-induced IL-6 mRNA expression after 24 hrs by qRT-PCR analysis; format: cell-based
[22] = test system: RAW264.7; assay: Inhibition of LPS-induced COX-2 protein expression in mouse RAW264.7 cells up to 30 uM after 24 hrs by Western blot analysis; format: functional, cell-based; settings: dose microM <=30, time 24.0 hrs
[23] = test system: RAW264.7; assay: Inhibition of LPS-induced ROS generation in mouse RAW264.7 cells up to 40 uM after 24 hrs by DCFH-DA staining based fluorescence assay; format: functional, cell-based; settings: dose microM <=40, time 24.0 hrs
[24] = test system: RAW264.7; assay: Inhibition of JNK phosphorylation in LPS-induced mouse RaW264.7 cells up to 30 uM after 24 hrs by Western blot analysis; settings: dose microM <=30, time 24.0 hrs
[25] = molecular target: MAP kinase p38 (Mus musculus) (UniProt P47811+O08911+Q9WUI1+Q9Z1B7); assay: Inhibition of p38 phosphorylation in LPS-induced mouse RaW264.7 cells up to 30 uM after 24 hrs by Western blot analysis; settings: dose microM <=30, time 24.0 hrs
[26] = test system: RAW264.7; assay: Inhibition of ERK phosphorylation in LPS-induced mouse RaW264.7 cells up to 30 uM after 24 hrs by Western blot analysis; settings: dose microM <=30, time 24.0 hrs
[27] = test system: RAW264.7; assay: Inhibition of NF-kappaB in mouse RaW264.7 cells assessed as reduction in LPS-induced IkappaBalpha degradation up to 30 uM after 24 hrs by Western blot analysis; format: cell-based; settings: dose microM <=30, time 24.0 hrs
[28] = test system: RAW264.7; assay: Inhibition of NF-kappaB phosphorylation in LPS-induced mouse RaW264.7 cells up to 30 uM after 24 hrs by Western blot analysis; settings: dose microM <=30, time 24.0 hrs
[29] = test system: RAW264.7; assay: Inhibition of IKKalpha/beta phosphorylation in LPS-induced mouse RaW264.7 cells up to 30 uM after 24 hrs by Western blot analysis; settings: dose microM <=30, time 24.0 hrs
[30] = test system: RAW264.7; assay: Inhibition of LPS-induced mitochondrial membrane potential loss in mouse RAW264.7 cells at 20 uM after 24 hrs by JC-1 staining based fluorescence microscopic method; format: functional, cell-based

Q: What does the source list for `C[C@]12CCC(=O)C=C1CC[C@@H]1[C@@H]2[C@@H](O)C[C@@]2(C)[C@H]1CC[C@]2(O)C(=O)CO` [HYDROCORTISONE]?
A: Activity [1]: Active; Activity [2]: Active; Activity [3]: 55.53%

Q: With `C=C1C[C@@]23CC[C@H]4[C@@](C)(CCC[C@@]4(C)C(=O)O)[C@@H]2CC[C@@H]1C3` [KAURENOIC ACID] as the compound, how does the IC50 [4] read?
A: 50 µM

Q: With `C=C1C[C@@]23CC[C@H]4[C@@](C)(CC[C@@H](OC(=O)/C(C)=C\C)[C@@]4(C)C(=O)O)[C@@H]2CC[C@@H]1C3` as the compound, how does the inhibition [5] read?
A: Active

Q: What about the inhibition [6] of the same compound?
A: Dose-dependent effect

Q: What about the inhibition [7] of the same compound?
A: Dose-dependent effect

Q: And the IC50 [8]?
A: 20.3 µM

Q: And the inhibition [9]?
A: Dose-dependent effect

Q: And the IC50 [4]?
A: 20.3 µM

Q: What about the inhibition [10] of the same compound?
A: Dose-dependent effect

Q: What about the Activity [11] of the same compound?
A: Non-Toxic

Q: And the Activity [12]?
A: Non-Toxic

Q: And the Activity [13]?
A: Active

Q: And the Activity [14]?
A: Active

Q: And the Activity [15]?
A: 51.57%

Q: And the Activity [16]?
A: 42.44%

Q: What about the inhibition [17] of the same compound?
A: Active

Q: What about the inhibition [18] of the same compound?
A: Active

Q: And the inhibition [19]?
A: Active

Q: And the inhibition [20]?
A: Dose-dependent effect

Q: And the inhibition [21]?
A: Dose-dependent effect

Q: What about the inhibition [22] of the same compound?
A: Active

Q: And the inhibition [23]?
A: Active

Q: And the inhibition [24]?
A: Active

Q: And the inhibition [25]?
A: Active

Q: What about the inhibition [26] of the same compound?
A: Active

Q: And the inhibition [27]?
A: Active

Q: And the inhibition [28]?
A: Active

Q: What about the inhibition [29] of the same compound?
A: Active

Q: What about the inhibition [30] of the same compound?
A: Active
